Results published in paper PMC9323422 (Angewandte Chemie (International Ed. in English), 2022).

How the values were obtained:
[1] = Determination of partition coefficients DCM/water; type: physicochemical; details: 24 h, room temperature
PTP1B = details: cited from earlier work
Recombinant human PTP1B = target: T1, Recombinant human PTP1B (Homo sapiens, UniProt P18031); type: biochemical
T1 sequence (P18031 1-435): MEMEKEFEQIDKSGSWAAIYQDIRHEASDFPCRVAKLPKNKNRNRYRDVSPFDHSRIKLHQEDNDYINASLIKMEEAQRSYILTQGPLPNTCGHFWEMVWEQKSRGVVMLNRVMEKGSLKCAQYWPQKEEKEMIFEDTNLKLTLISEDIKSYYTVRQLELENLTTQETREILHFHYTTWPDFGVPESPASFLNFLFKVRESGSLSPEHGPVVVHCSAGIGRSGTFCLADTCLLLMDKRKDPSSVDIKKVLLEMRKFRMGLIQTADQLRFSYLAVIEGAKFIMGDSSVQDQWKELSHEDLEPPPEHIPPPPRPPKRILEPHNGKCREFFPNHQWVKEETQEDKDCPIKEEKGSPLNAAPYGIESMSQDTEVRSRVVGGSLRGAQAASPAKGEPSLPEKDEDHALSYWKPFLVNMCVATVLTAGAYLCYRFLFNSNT

[2] = pH 2
Irradiation experiment = type: physicochemical; details: 365 nm, 2 h, room temperature, isopropanol/water (70 : 30)

| Compound | Percent compound in DCM (organic phase) [1] [%] | affinity, inhibition of PTP1B phosphatase activity (PTP1B) | Ki (Recombinant human PTP1B) [µM] | increase of affinity to PTP1B relative to phosphonate amino acid 1 (Recombinant human PTP1B) [fold] | stability of the pentafluorophosphate anion [2] | photostability on irradiation (Irradiation experiment) |
| --- | --- | --- | --- | --- | --- | --- |
| FC(F)(c1ccccc1)[P-](F)(F)(F)(F)F [Compound 2] | 37 | low, millimolar affinity |  |  |  |  |
| NC(Cc1ccc(C(F)(F)[P-](F)(F)(F)(F)F)cc1)C(=O)O (stereo not drawn) [Compound 3, 4‐pentafluoro‐phosphato‐difluoromethyl‐phenylalanine] |  |  | 61 ± 8 | 25 | stable |  |
| CNC(=O)C(Cc1ccc(C(F)(F)[P-](F)(F)(F)(F)F)cc1)NC(C)=O (stereo not drawn) [Compound 10] | 16 |  |  |  |  |  |
| NC(Cc1ccc(C(=O)[P-](F)(F)(F)(F)F)cc1)C(=O)O (stereo not drawn) [Compound 12, 4‐(pentafluorophosphato‐carbonyl)‐phenylalanine] |  |  | 52 ± 7 | 30 |  | photoconversion of the PF5 residue |
